In patent US4048167A, “N,N-disubstituted derivatives of 3-carboxamide or 3-thiocarboxamide-7-(3-chloro-2-propenyl)-1,3,5,7-tetraazabicyclo(3.3.1) nonane and preparation II” (The Dow Chemical Company, priority 1976, dated 1977) one finds MIC data, which are given here for five molecules.

Converted amounts (≈) assume the structure as drawn.

Holding throughout (type): cell-based
The subject of one assay is S. aureus. Description: agar Petri dish dilution test, S. aureus. Particulars: Staphylococcus aureus.
For another assay, the system named is E. coli. Description: agar Petri dish dilution test, E. coli. Conditions: Escherichia coli.
A further assay concerns mentagrophytes. Nature of the assay: agar Petri dish dilution test, mentagrophytes.
The next assay relates to B. subtilis. Nature of the assay: agar Petri dish dilution test, B. subtilis. Particulars: Bacillus subtilis.
The subject of the next assay is A. aerogenes. Description: agar Petri dish dilution test, A. aerogenes. Particulars: Klebsiella aerogenes.
A further assay has as its system M. phlei. Nature of the assay: agar Petri dish dilution test, M. phlei. Particulars: Mycolicibacterium phlei.
Assay [1] has as its system Pseudomas Species Str. 10. Nature of the assay: agar Petri dish dilution test, Pseudomas Species Str. 10. Particulars: read-out: MIC, Ps.

Regarding `CCN(CC)C(=O)N1CN2CN(C/C=C\Cl)CN(C2)C1` [Example 2 a.], the MIC – broadly, the lowest concentration found to suppress growth – was 500 mg/L (≈ 1660 µM) against S. aureus; 100 mg/L (≈ 331 µM) in the assay with E. coli; 100 mg/L (≈ 331 µM) in the assay on mentagrophytes; 100 mg/L (≈ 331 µM) in the assay with B. subtilis; 100 mg/L (≈ 331 µM) against A. aerogenes; 500 mg/L (≈ 1660 µM) in the assay with M. phlei.
As for `CN(C)C(=O)N1CN2CN(C/C=C\Cl)CN(C2)C1` [Example 1, N,N-Dimethyl-3-Carboxamide-7-cis-(3-Chloro-2-Propenyl)-1,3,5,7-Tetraazabicyclo(3.3.1)Nonane], the MIC is 500 mg/L (≈ 1830 µM) with S. aureus; 500 mg/L (≈ 1830 µM) against E. coli; 100 mg/L (≈ 365 µM) against mentagrophytes; 100 mg/L (≈ 365 µM) with B. subtilis; 100 mg/L (≈ 365 µM) with A. aerogenes; 500 mg/L (≈ 1830 µM) in assay [1]. The MIC with M. phlei turned out to be 500 mg/L (≈ 1830 µM).
Turning to `CN(C(=O)N1CN2CN(C/C=C\Cl)CN(C2)C1)c1ccccc1` [Example 2 c.], the MIC is 500 mg/L (≈ 1490 µM) in the assay on S. aureus; 500 mg/L (≈ 1490 µM) in the assay with E. coli; 100 mg/L (≈ 298 µM) in the assay on mentagrophytes; 500 mg/L (≈ 1490 µM) in the assay on B. subtilis; 500 mg/L (≈ 1490 µM) with A. aerogenes; 500 mg/L (≈ 1490 µM) in assay [1]. Moreover, the MIC with M. phlei was determined as 500 mg/L (≈ 1490 µM).
In the case of `O=C(N1CN2CN(C/C=C\Cl)CN(C2)C1)N(c1ccccc1)c1ccccc1` [Example 2 b.], the MIC against S. aureus is 500 mg/L (≈ 1260 µM); with E. coli it was 500 mg/L (≈ 1260 µM); in the assay with mentagrophytes, 100 mg/L (≈ 251 µM); against B. subtilis, 500 mg/L (≈ 1260 µM); against A. aerogenes, 500 mg/L (≈ 1260 µM); in assay [1] it was 500 mg/L (≈ 1260 µM). In the assay on M. phlei, this molecule registered an MIC of 500 mg/L (≈ 1260 µM).
For `CN(C)C(=S)N1CN2CN(C/C=C\Cl)CN(C2)C1` [Example 2 d.], the MIC came out at 500 mg/L (≈ 1730 µM) with S. aureus; 500 mg/L (≈ 1730 µM) in the assay on E. coli; 100 mg/L (≈ 345 µM) with mentagrophytes; 100 mg/L (≈ 345 µM) against B. subtilis; 500 mg/L (≈ 1730 µM) in the assay on A. aerogenes; 500 mg/L (≈ 1730 µM) in assay [1]. For the same molecule, 500 mg/L (≈ 1730 µM) was the least that counted as inhibitory against M. phlei (MIC).
